Reference: patent US8158637B2, “Quinazolines useful as modulators of voltage gated ion channels” (Vertex Pharmaceuticals Incorporated, priority 2005, dated 2012)

Each compound was assayed against T1, NaV 1.8 channel (Homo sapiens, UniProt Q9Y5Y9) (assay: VIPR optical membrane potential assay with electrical stimulation, NaV1.8 inhibition). Conditions: activity against NaV 1.8 channel.
T1 construct: expressed in transfected cells; host or cells: HEK293
T1 sequence (Q9Y5Y9 whole entry): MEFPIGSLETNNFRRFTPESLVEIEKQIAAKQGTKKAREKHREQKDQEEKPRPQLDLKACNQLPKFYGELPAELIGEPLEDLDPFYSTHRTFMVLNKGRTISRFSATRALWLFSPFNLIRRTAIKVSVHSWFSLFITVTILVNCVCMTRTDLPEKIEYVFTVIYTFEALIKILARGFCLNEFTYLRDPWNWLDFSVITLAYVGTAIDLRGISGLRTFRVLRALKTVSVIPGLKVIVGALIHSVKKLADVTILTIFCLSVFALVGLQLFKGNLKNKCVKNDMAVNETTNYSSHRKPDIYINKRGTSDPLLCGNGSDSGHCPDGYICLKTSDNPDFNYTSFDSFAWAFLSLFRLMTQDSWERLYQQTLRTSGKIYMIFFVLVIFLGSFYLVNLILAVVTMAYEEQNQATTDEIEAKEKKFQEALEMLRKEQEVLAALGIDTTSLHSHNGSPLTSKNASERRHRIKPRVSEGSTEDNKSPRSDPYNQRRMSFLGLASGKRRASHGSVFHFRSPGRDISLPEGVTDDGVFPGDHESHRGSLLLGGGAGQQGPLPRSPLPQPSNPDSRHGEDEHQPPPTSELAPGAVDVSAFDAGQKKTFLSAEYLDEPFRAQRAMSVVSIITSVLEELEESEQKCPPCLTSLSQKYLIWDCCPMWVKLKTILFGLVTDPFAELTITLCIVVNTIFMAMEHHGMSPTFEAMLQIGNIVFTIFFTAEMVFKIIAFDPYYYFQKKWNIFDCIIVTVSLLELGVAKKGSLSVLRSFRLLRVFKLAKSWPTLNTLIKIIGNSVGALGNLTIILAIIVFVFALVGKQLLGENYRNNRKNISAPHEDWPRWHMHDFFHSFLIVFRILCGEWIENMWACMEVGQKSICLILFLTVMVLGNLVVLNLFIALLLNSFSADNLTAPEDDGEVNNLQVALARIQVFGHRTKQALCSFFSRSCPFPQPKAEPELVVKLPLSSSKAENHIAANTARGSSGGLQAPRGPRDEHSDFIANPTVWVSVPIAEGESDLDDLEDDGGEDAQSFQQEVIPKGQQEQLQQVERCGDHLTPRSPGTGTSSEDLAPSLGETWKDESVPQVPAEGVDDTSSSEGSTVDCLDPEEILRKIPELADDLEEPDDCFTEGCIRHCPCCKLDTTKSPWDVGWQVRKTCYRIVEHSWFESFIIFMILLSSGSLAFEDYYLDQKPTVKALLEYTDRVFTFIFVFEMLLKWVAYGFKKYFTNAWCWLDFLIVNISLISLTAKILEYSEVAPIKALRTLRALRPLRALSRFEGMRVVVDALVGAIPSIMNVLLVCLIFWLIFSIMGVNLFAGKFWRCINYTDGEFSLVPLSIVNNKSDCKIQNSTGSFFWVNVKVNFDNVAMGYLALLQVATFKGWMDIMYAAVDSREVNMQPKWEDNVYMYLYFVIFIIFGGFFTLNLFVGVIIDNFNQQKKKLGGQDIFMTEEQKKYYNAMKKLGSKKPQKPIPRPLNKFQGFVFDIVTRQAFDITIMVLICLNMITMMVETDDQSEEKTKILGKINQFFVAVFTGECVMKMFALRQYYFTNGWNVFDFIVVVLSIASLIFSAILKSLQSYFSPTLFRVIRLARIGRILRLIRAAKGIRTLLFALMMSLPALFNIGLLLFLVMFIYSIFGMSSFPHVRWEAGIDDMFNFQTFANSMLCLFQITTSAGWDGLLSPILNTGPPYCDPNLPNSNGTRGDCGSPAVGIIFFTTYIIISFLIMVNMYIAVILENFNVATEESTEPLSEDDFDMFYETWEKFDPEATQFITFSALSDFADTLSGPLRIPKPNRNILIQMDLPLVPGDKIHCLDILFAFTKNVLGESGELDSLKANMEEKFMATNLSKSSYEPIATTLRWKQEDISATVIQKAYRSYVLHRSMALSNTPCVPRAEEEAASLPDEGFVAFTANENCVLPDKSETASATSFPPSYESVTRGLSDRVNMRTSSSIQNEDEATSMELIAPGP
Assay type: cell-based
Description: Compounds of the invention are useful as antagonists of voltage-gated sodium ion channels. Antagonist properties of test compounds were assessed as follows. Cells expressing the NaV of interest were placed into microtiter plates. After an incubation period, the cells were stained with fluorescent dyes sensitive to the transmembrane potential. The test compounds were added to the microtiter plate. The cells were stimulated with either a chemical or electrical means to evoke a NaV dependent membrane potential change from unblocked channels, which was detected and measured with trans-membrane potential-sensitive dyes. Antagonists were detected as a decreased membrane potential response to the stimulus. The optical membrane potential assay utilized voltage-sensitive FRET sensors described by Gonzalez and Tsien (See, Gonzalez, J. E. and R. Y. Tsien (1995) “Voltage sensing by fluorescence resonance energy transfer in single cells” Biophys J 69(4): 1272-80, and Gonzalez, J. E. and R. Y. Tsien (1997) “Improved indicators of cell membrane potential that use fluorescence resonance energy transfer” Chem Biol 4(4): 269-77) in combination with instrumentation for measuring fluorescence changes such as the Voltage/Ion Probe Reader (VIPR®) (See, Gonzalez, J. E., K. Oades, et al. (1999) “Cell-based assays and instrumentation for screening ion-channel targets” Drug Discov Today 4(9): 431-439).
C) VIPR® Optical Membrane Potential Assay Method with Electrical Stimulation
The following was an example of how NaV1.8 inhibition activity was measured using the optical membrane potential method #2. Other subtypes were performed in an analogous mode in a cell line expressing the NaV of interest.
HEK293 cells stably expressing NaV1.8 were plated into 96-well microtiter plates. After an appropriate incubation period, the cells were stained with the voltage sensitive dyes CC2-DMPE/DiSBAC6(3) as follows.
2×CC2-DMPE/DiSBAC6(3)=8 μM CC2-DMPE/8 μM DiSBAC6(3): 10 mM CC2-DMPE and DiSBAC6(3) was vortexed with an equivalent volume of 10% pluronic, followed by vortexing in required amount of Bath Solution #1. Each cell plate required 5 mL of 2×CC2-DMPE/DiSBAC6(3). 50 μL of 2×CC2-DMPE/DiSBAC6(3) was added to wells containing washed cells, resulting in a 4 μM final staining concentration of both dyes. The cells were stained for 30 minutes in the dark at RT.
2×ABSC1=1 mM ABSC1: The required amount of 200 mM ABSC1 was added to a 50 ml conical tube and mixed with 1 μL 10% pluronic for each mL of solution made and vortexed together. Then Bath Solution #1 was added to make up a 2× solution. Finally, the ABSC1 was added.
The 2×ABSC1 solution was used to solvate compound plates. Note that compound plates were made at 2× drug concentration. The stained plate was washed again, leaving residual volume of 50 μL. Added 50 μL/well of the 2×ABSC1. The cells were stained for 30 minutes in the dark at RT.
The electrical stimulation instrument and methods of use are described in ION Channel Assay Methods PCT/US01/21652 and Nat Biotech 2006, 24(4), 439-446, both herein incorporated by reference. The instrument comprises a microtiter plate handler, an optical system for exciting the coumarin dye while simultaneously recording the coumarin and oxonol emissions, a waveform generator, a current- or voltage-controlled amplifier, and a device for inserting electrodes in well. Under integrated computer control, this instrument passed user-programmed electrical stimulus protocols to cells within the wells of the microtiter plate.
Assay Protocol • 1. Inserted or used electrodes into each well that was assayed. • 2. Used the current-controlled amplifier to deliver stimulation wave pulses for 3 s. Two seconds of pre-stimulus recording was performed to obtain the un-stimulated intensities. Five seconds of post-stimulation recording was performed to examine the relaxation to the resting state. […]
In the case of `COCCOC(=O)N[C@@H]1CCN(c2nc(-c3c(O)cccc3F)nc3cc(C)ccc23)C1` [Compound 1, (R)-2-Methoxyethyl 1-(2-(2-fluoro-6-hydroxyphenyl)-7-methylquinazolin-4-yl)pyrrolidin-3-ylcarbamate], the IC50 is reported as 1000 to 5000 nM. In the case of `CCOC(=O)N[C@@H]1CCN(c2nc(-c3ccccc3O)nc3cc(C)ccc23)C1` [Compound 2, (R)-Ethyl 1-(2-(2-hydroxyphenyl)-7-methylquinazolin-4-yl)pyrrolidin-3-ylcarbamate], the IC50 is reported as under 1000 nM. `CCCOC(=O)N[C@@H]1CCN(c2nc(-c3ccccc3O)nc3cc(C)ccc23)C1` [Compound 3, (R)-Propyl 1-(2-(2-hydroxyphenyl)-7-methylquinazolin-4-yl)pyrrolidin-3-ylcarbamate] gave an IC50 of under 1000 nM. `CC(C)(C)COC(=O)N[C@@H]1CCN(c2nc(-c3ccccc3O)nc3ccc(F)cc23)C1` [Compound 4, (R)-Neopentyl 1-(6-fluoro-2-(2-hydroxyphenyl)quinazolin-4-yl)pyrrolidin-3-ylcarbamate] gave an IC50 of over 5000 nM. In the case of `Cc1ccc2c(N3CC[C@@H](NC(=O)OCC(C)C)C3)nc(-c3ccccc3O)nc2c1` [Compound 5, (R)-Isobutyl 1-(2-(2-hydroxyphenyl)-7-methylquinazolin-4-yl)pyrrolidin-3-ylcarbamate], the IC50 is reported as under 1000 nM. `COCCOC(=O)N[C@H]1CCN(c2nc(-c3ccccc3O)nc3cc(C)ccc23)C1` [Compound 6, (S)-{1-[2-(2-Hydroxy-phenyl)-7-methyl-quinazolin-4-yl]-pyrrolidin-3-yl}-carbamic acid 2-methoxy-ethyl ester] gave an IC50 of over 5000 nM. `Cc1ccc2c(N3CC[C@H](NC(=O)OCC(C)C)C3)nc(-c3ccccc3O)nc2c1` [Compound 7, (S)-{1-[2-(2-Hydroxy-phenyl)-7-methyl-quinazolin-4-yl]-pyrrolidin-3-yl}-carbamic acid isobutyl ester] showed an IC50 of 1000 to 5000 nM. `Cc1ccc2c(N3CC[C@@H](NC(=O)OCC(C)C)C3)nc(-c3c(O)cccc3F)nc2c1` [Compound 8, (R)-Isobutyl 1-(2-(2-fluoro-6-hydroxyphenyl)-7-methylquinazolin-4-yl)pyrrolidin-3-ylcarbamate] gave an IC50 of under 1000 nM. `Cc1ccc2c(N3CC[C@@H](NC(=O)OCC(C)(C)C)C3)nc(-c3ccccc3O)nc2c1` [Compound 9, (R)-Neopentyl 1-(2-(2-hydroxyphenyl)-7-methylquinazolin-4-yl)pyrrolidin-3-ylcarbamate] gave an IC50 of under 1000 nM. For `CCOC(=O)N[C@@H]1CCN(c2nc(-c3c(O)cccc3F)nc3cc(C)ccc23)C1` [Compound 10, (R)-Ethyl 1-(2-(2-fluoro-6-hydroxyphenyl)-7-methylquinazolin-4-yl)pyrrolidin-3-ylcarbamate], the IC50 was 1000 to 5000 nM. Work on `Cc1ccc2c(N3CC[C@@H](NC(=O)OCC(C)(C)C)C3)nc(-c3c(O)cccc3F)nc2c1` [Compound 11, (R)-Neopentyl 1-(2-(2-fluoro-6-hydroxyphenyl)-7-methylquinazolin-4-yl)pyrrolidin-3-ylcarbamate] yielded an IC50 of under 1000 nM. `Cc1ccc2c(N3CC[C@@H](NC(=O)OC(C)C)C3)nc(-c3ccccc3O)nc2c1` [Compound 12, (R)-Isopropyl 1-(2-(2-hydroxyphenyl)-7-methylquinazolin-4-yl)pyrrolidin-3-ylcarbamate] gave an IC50 of under 1000 nM. In the case of `CCCOC(=O)N[C@@H]1CCN(c2nc(-c3c(O)cccc3F)nc3cc(C)ccc23)C1` [Compound 13, (R)-Propyl 1-(2-(2-fluoro-6-hydroxyphenyl)-7-methylquinazolin-4-yl)pyrrolidin-3-ylcarbamate], the IC50 is reported as under 1000 nM. Work on `COCCOC(=O)N[C@@H]1CCN(c2nc(-c3ccccc3O)nc3cc(C)ccc23)C1` [Compound 14, (R)-2-Methoxyethyl 1-(2-(2-hydroxyphenyl)-7-methylquinazolin-4-yl)pyrrolidin-3-ylcarbamate] yielded an IC50 of 1000 to 5000 nM. `CC(C)COC(=O)N[C@@H]1CCN(c2nc(-c3ccccc3O)nc3ccc(F)cc23)C1` [Compound 15, (R)-Isobutyl 1-(6-fluoro-2-(2-hydroxyphenyl)quinazolin-4-yl)pyrrolidin-3-ylcarbamate] showed an IC50 of 1000 to 5000 nM. In the case of `CC(C)OC(=O)N[C@@H]1CCN(c2nc(-c3ccccc3O)nc3ccc(F)cc23)C1` [Compound 16, (R)-Isopropyl 1-(6-fluoro-2-(2-hydroxyphenyl)quinazolin-4-yl)pyrrolidin-3-ylcarbamate], the IC50 is reported as 1000 to 5000 nM. `Cc1ccc2c(N3CC[C@@H](NC(=O)OCC(C)C)C3)nc(-c3ccccc3C(F)F)nc2c1` [Compound 17, (R)-Isobutyl 1-(2-(2-(difluoromethyl)phenyl)-7-methylquinazolin-4-yl)pyrrolidin-3-ylcarbamate] gave an IC50 of under 1000 nM. `Cc1ccc2c(N3CC[C@@H](NC(=O)OCC(C)(C)C)C3)nc(-c3ccccc3C(F)F)nc2c1` [Compound 18, (R)-Neopentyl 1-(2-(2-(difluoromethyl)phenyl)-7-methylquinazolin-4-yl)pyrrolidin-3-ylcarbamate] showed an IC50 of under 1000 nM.
